Measured values: US20150197492A1, “NOVEL INDENO[1,2-c]QUINOLIN-11-ONE DERIVATIVES, PREPARATION METHOD AND APPLICATION THEREOF” (National Defense Medical Center, priority 2014, published 2015)

Tests used:
Assay type in all cases: cell-based
ACHN = test: cells; conditions: ACHN (Renal Cancer), 10 μM, 48 hours
SN12C = test: cells; conditions: SN12C (Renal Cancer), 10 μM, 48 hours
SW-620 = test: cells; conditions: SW-620 (Colon Cancer), 10 μM, 48 hours
UO-31 = test: cells; conditions: UO-31 (Renal Cancer), 10 μM, 48 hours
M14 = test: cells; conditions: M14 (Melanoma), 10 μM, 48 hours
PC-3 = test: cells; conditions: PC-3 (Prostate Cancer), 10 μM, 48 hours
786-0 = test: cells; conditions: 786-0 (Renal Cancer), 10 μM, 48 hours
OVCAR-8 = test: cells; conditions: OVCAR-8 (Ovarian Cancer), 10 μM, 48 hours
SK-OV-3 = test: cells; conditions: SK-OV-3 (Ovarian Cancer), 10 μM, 48 hours
NCI-H522 = test: cells; conditions: NCI-H522 (Non-Small Cell Lung Cancer), 10 μM, 48 hours
NCI-H460 = test: cells; conditions: NCI-H460 (Non-Small Cell Lung Cancer), 10 μM, 48 hours
NCI-H23 = test: cells; conditions: NCI-H23 (Non-Small Cell Lung Cancer), 10 μM, 48 hours
TK-10 = test: cells; conditions: TK-10 (Renal Cancer), 10 μM, 48 hours
MDA-MB-468 = test: cells; conditions: MDA-MB-468 (Breast Cancer), 10 μM, 48 hours
LOX IMVI = test: cells; conditions: LOX IMVI (Melanoma), 10 μM, 48 hours
SNB-19 = test: cells; conditions: SNB-19 (CNS Cancer), 10 μM, 48 hours
RPMI-8226 = test: cells; conditions: RPMI-8226 (Leukemia), 10 μM, 48 hours
[1] = test system: 55 to 60 cancer cell lines; conditions: 10 μM, 48 hours; for Mean (mean growth percentage of the tested cancer cell lines): all tested cell lines
MOLT-4 = test: cells; conditions: MOLT-4 (Leukemia), 10 μM, 48 hours
OVCAR-5 = test: cells; conditions: OVCAR-5 (Ovarian Cancer), 10 μM, 48 hours
SK-MEL-5 = test: cells; conditions: SK-MEL-5 (Melanoma), 10 μM, 48 hours
OVCAR-4 = test: cells; conditions: OVCAR-4 (Ovarian Cancer), 10 μM, 48 hours
K-562 = test: cells; conditions: K-562 (Leukemia), 10 μM, 48 hours
RXF 393 = test: cells; conditions: RXF 393 (Renal Cancer), 10 μM, 48 hours
SR = test: cells; conditions: SR (Leukemia), 10 μM, 48 hours
NCI-H322M = test: cells; conditions: NCI-H322M (Non-Small Cell Lung Cancer), 10 μM, 48 hours
T-47D = test: cells; conditions: T-47D (Breast Cancer), 10 μM, 48 hours
SNB-75 = test: cells; conditions: SNB-75 (CNS Cancer), 10 μM, 48 hours
OVCAR-3 = test: cells; conditions: OVCAR-3 (Ovarian Cancer), 10 μM, 48 hours
COLO 205 = test: cells; conditions: COLO 205 (Colon Cancer), 10 μM, 48 hours

SMILES | growth percentage (ACHN) | growth percentage (SN12C) | growth percentage (SW-620) | growth percentage (UO-31) | growth percentage (M14) | growth percentage (PC-3) | growth percentage (786-0) | growth percentage (OVCAR-8) | growth percentage (SK-OV-3) | growth percentage (NCI-H522) | growth percentage (NCI-H460) | growth percentage (NCI-H23) | growth percentage (MDA-MB-468) | growth percentage (SNB-19) | growth percentage (RPMI-8226) | Mean (mean growth percentage of the tested cancer cell lines) [1] | growth percentage (MOLT-4) | growth percentage (OVCAR-5) | growth percentage (SK-MEL-5) | growth percentage (OVCAR-4) | other results
CNc1nc2ccccc2c2c1-c1ccc(Cl)cc1C2=O [SJ-1, 9-Chloro-6-(methylamino)-11H-indeno[1,2-c]quinolin-11-one] | 88.46% | 94.82% | 96.25% | 56.91% | 112.68% | 89.44% | 103.34% | 94.33% | 92.62% | 90.50% | 84.38% | 86.83% | -31.61% | 95.95% | 91.82% | 84.15% | 93.26% | 81.54% | 80.96% | 72.83% | growth percentage (TK-10): 65.31%; growth percentage (LOX IMVI): 93.40%; inhibition effect in different cancer cell lines (summary of the NCI data, in words) [1]: more effective in breast cancer cell line; growth percentage (K-562): 90.99%; growth percentage (RXF 393): 97.15%; growth percentage (SR): 91.67%; growth percentage (NCI-H322M): 80.85%; growth percentage (T-47D): 23.53%; growth percentage (SNB-75): 79.70%; growth percentage (OVCAR-3): 84.91%; growth percentage (COLO 205): 66.47%
CC1CCN(c2nc3ccccc3c3c2-c2ccc(Cl)cc2C3=O)CC1 [SJ-6, 9-Chloro-6-(4-methylpiperidin-1-yl)-11H-indeno[1,2-c]quinolin-11-one] | 94.75% | 99.08% | 88.89% | 76.25% | 96.60% | 90.64% | 102.73% | 96.38% | 99.78% | 98.45% | 101.21% | 90.42% | 97.12% | 103.87% | 97.99% | 96.2% | 94.41% | 104.92% | 98.52% | 97.11% | growth percentage (TK-10): 134.79%; growth percentage (K-562): 103.57%; growth percentage (RXF 393): 97.51%; growth percentage (SR): 98.51%; growth percentage (NCI-H322M): 107.08%; growth percentage (T-47D): 67.68%; growth percentage (SNB-75): 84.42%; growth percentage (OVCAR-3): 97.59%; growth percentage (COLO 205): 104.79%
O=C1c2cc(Cl)ccc2-c2c(N3CCN(C4CCCC4)CC3)nc3ccccc3c21 [SJ-14, 9-Chloro-6-(4-cyclopentylpiperazin-1-yl)-11H-indeno[1,2-c]quinolin-11-one] | 100.03% | 99.08% | 93.06% | 72.57% | 105.34% | 86.19% | 97.90% | 96.55% | 96.85% | 98.72% | 101.46% | 92.80% | 103.99% | 95.06% | 94.89% | 96.53% | 98.39% | 106.41% | 97.48% | 94.20% | growth percentage (K-562): 99.26%; growth percentage (RXF 393): 95.60%; growth percentage (SR): 97.09%; growth percentage (NCI-H322M): 98.50%; growth percentage (T-47D): 92.20%; growth percentage (SNB-75): 86.36%; growth percentage (OVCAR-3): 99.54%; growth percentage (COLO 205): 104.54%
O=C1c2cc(Cl)ccc2-c2c(N3CCN(c4ccccc4)CC3)nc3ccccc3c21 [SJ-16, 9-Chloro-6-(4-phenylpiperazin-1-yl)-11H-indeno[1,2-c]quinolin-11-one] | 68.58% | 87.90% | 93.14% | 65.02% | 97.52% | 79.79% | 81.41% | 75.82% | 78.58% | 80.10% | 97.04% | 83.34% | 95.37% | 88.40% | 95.33% | 87.29% | 98.13% | 88.56% | 99.23% | 90.32% | growth percentage (TK-10): 115.61%; growth percentage (K-562): 95.17%; growth percentage (RXF 393): 72.95%; growth percentage (SR): 95.93%; growth percentage (NCI-H322M): 98.63%; growth percentage (T-47D): 75.93%; growth percentage (SNB-75): 33.20%; growth percentage (OVCAR-3): 98.07%; growth percentage (COLO 205): 102.19%
COc1cccc(N2CCN(c3nc4ccccc4c4c3-c3ccc(Cl)cc3C4=O)CC2)c1 [SJ-20, 9-Chloro-6-(4-(3-methoxyphenyl)piperazin-1-yl)-11H-indeno[1,2-c]quinolin-11-one] | 93.51% | 88.17% | 91.16% | 86.64% | 105.07% | 72.83% | 81.67% | 83.98% | 86.02% | 79.75% | 101.76% | 87.22% | 101.04% | 105.27% | 93.63% | 92.15% | 95.46% | 98.22% | 96.87% | 87.08% | growth percentage (TK-10): 133.34%; growth percentage (K-562): 94.25%; growth percentage (RXF 393): 78.38%; growth percentage (SR): 95.05%; growth percentage (NCI-H322M): 91.93%; growth percentage (T-47D): 86.68%; growth percentage (SNB-75): 37.76%; growth percentage (OVCAR-3): 104.27%; growth percentage (COLO 205): 106.63%
